# Measured values reported in patent US8497089B2, “Method to predict toxicity using the analysis of dynamic organelle behaviour” (Innovative Concepts in Drug Development (ICDD), priority 2007, dated 2013).
# Counter-ions that a name gives are not always drawn.
# Tests used:
# [1] = system: primary human fibroblasts; assay: Variations of mitochondrial motility; assay type: cell-based; conditions: 0.1 μM, 30 minutes to 16 hours at 37° C, vs vehicle; FIG. 2
# Experimental: The speed of an organelle' movements is measured by the displacement in μm of this organelle within the lapse of two captured frames. This measure is repeated over the total length of the image capture. Speed can be expressed as an average velocity observed for an organelle over the duration of the capture or by the maximal velocity observed for an organelle over the same duration.
# The amplitude of organelle movements is expressed as a variable of the frequency of bursts in the total displacement of one organelle. A burst is defined as a sudden displacement within 30% of the maximal displacements of an organelle during the period of capture.
# The frequency of organelle movements is expressed as a number of periods during which the organelle remains immobile.
# (§1) Images were captured for 20-40 frames every 3-15 sec on a z scale spanning 1 μm around the initial center of focus. Z slides were reconstructed to generate a movie that was further analyzed for mitochondrial tracking, shape recognition, length measurements and intensities measurements.
# Mitochondrial displacement was assessed by the measure of the mitochondrial velocity, the amplitude of its movement and particularly the frequency of bursts and the frequency of movements represented by the periods of movement arrests (FIG. 2). […]
# [2] = system: primary human fibroblasts; assay: Variations of mitochondrial morphology (mitochondria length, doughnut formation); assay type: cell-based; conditions: 0.1 to 10 μM, in percent of the vehicle
# Excerpt: Measured parameters can include, but are not restricted to, the length of the mitochondria allowing for an appreciation of the equilibrium between fusion and fission, the number of mitochondria in a doughnut shape per cell, the number of mitochondrial derived vesicle per cell and the number of mitochondria undergoing swelling/aggregation per cell.
# as §1
# Changes in mitochondrial morphology, i.e. in the mitochondria length and in the formation of doughnuts, were observed associated with compound toxicity in a dose dependent manner.
# The mitochondria length and the formation of doughnuts are two parameters which indicate the dynamic modulation of the fission-fusion phenomenon that occurs in the mitochondria. When very short, the mitochondria cannot assume a doughnut shape anymore, thus making the loss of the doughnut shapes a signal very significant of a toxicity than cannot be compensate by the fission-fusion dynamics. When the equilibrium of fission-fusion is impaired the fragmentation of the mitochondria is associated with neurodegeneration (Knott et al., 2008).
# [3] = system: primary human fibroblasts; assay: Variations of mitochondrial relationship with the cytoskeleton (area containing entwined mitochondria); conditions: area containing entwined mitochondria in percent of total cell area; FIG. 4 for paclitaxel
variations of mitochondria length ([2]; FIG. 3A),variations of the formation of doughnuts ([2]; FIG. 3B),SMILES,number of immobilization periods of mitochondria [1],variations of the mitochondrial motility [1],variation of mitochondrial relationship with the cytoskeleton [3]
induced variations,induced variations,Cc1ccc(NC(=O)c2ccc(CN3CCN(C)CC3)cc2)cc1Nc1nccc(-c2cccnc2)n1 [imatinib mesylate],increasing the number of immobilization periods of mitochondria,induced variations of the mitochondrial motility,did not induce any variation
,,CC(=O)O[C@H]1C(=O)[C@@]2(C)[C@H]([C@H](OC(=O)c3ccccc3)[C@]3(O)C[C@H](OC(=O)[C@H](O)[C@@H](NC(=O)c4ccccc4)c4ccccc4)C(C)=C1C3(C)C)[C@]1(OC(C)=O)CO[C@@H]1C[C@@H]2O [paclitaxel],,,affected the relationship of mitochondria with cytoskeleton in a dose-dependent manner
